Data from patent US20240101548A1, “HYDROXAMATE COMPOUND, PREPARATION METHOD THEREFOR AND APPLICATION THEREOF” (SHENZHEN CHIPSCREEN BIOSCIENCES CO., LTD., priority 2020, published 2024).
Like-named read-outs stand apart in the source and are kept apart here.

Experiments:
Assay type in all cases: cell-based, human
[1] = tested on: IL-10-induced JAK1/TYK2 signal pathway; experiment: IL-10-induced JAK1/TYK2 signal pathway STAT3-Luc reporter gene assay in U2OS cells; conditions: U2OS cells, STAT3-Luc reporter, IL-10 10 ng/mL, read-out: Half inhibition dose (IC50) on IL-10-induced JAK1/TYK2 signal pathway
Procedure, shortened: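 Luciferase read-out (560 nm) corrected by GFP signal (Ex485/Em520) gives IL-10 pathway activity, and IC50 is derived from inhibition rates. Cells were U2OS transfected with IL-10R1 plus STAT3-Luc reporter, pretreated 6 h with 0.1–300 nM compound, then stimulated 24 h with IL-10 at 10 ng/mL.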

[2] = tested on: IL-2-induced JAK1/JAK3 signal pathway; experiment: IL-2-induced proliferation of KHYG-1 cells (JAK1/JAK3 signal); conditions: KHYG-1 cell proliferation, IL-2 10 ng/mL, 72 hours, read-out: Inhibition activity IC50 on IL-2-induced JAK1/JAK3 signal pathway
Procedure, shortened: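 Controls were wells lacking both compound and cytokine (0%) and compound-free IL-2 wells (100%). C50 was calculated from inhibition rates across doses.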

[3] = tested on: EPO-induced JAK2 signal pathway; experiment: EPO-induced proliferation of UT-7 cells (JAK2 signal); conditions: UT-7 cell proliferation, EPO 10 ng/mL, 72 hours, read-out: Inhibition activity IC50 on EPO-induced JAK2 signal pathway
Procedure, shortened: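 […] was derived from inhibition rates across doses, scaled between wells lacking compound and cytokine (0) and EPO without compound (100), using alamarBlue fluorescence at Ex530/Em590. Compound (final 0-10000 nM) and 10 ng/mL EPO were given to UT-7 cells at 15000 per well for 72 h at 37° C.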

SMILES	IC50 ([1]; Homo sapiens, U2OS)	IC50 ([2]; Homo sapiens)	IC50 ([3]; Homo sapiens, UT7)	IC50 [1]	IC50 [2]	IC50 [3]	IC50 ([1]; Homo sapiens)
CONC(=O)c1cnc(Nc2cccc(C)n2)cc1Nc1ccccc1N(C)S(C)(=O)=O [Example 102, N-methoxy-4-((2-(N-methylmethanesulfonamido)phenyl)amino)-6-((6-methylpyridin-2-yl)amino)nicotinamide]	0.000623 µM	> 10 µM	> 10 µM				
C#Cc1cc(N(C)S(C)(=O)=O)c(Nc2cc(Nc3cc(C)nc(C)n3)ncc2C(=O)NOCC)cc1F [Example 182]	0.00159 µM	> 10 µM	> 10 µM				
CCONC(=O)c1cnc(Nc2cc(C)nc(C)n2)cc1Nc1ccc(N2CCOCC2)cc1N(C)S(C)(=O)=O [Example 134, 6-((2,6-dimethylpyrimidin-4-yl)amino)-N-ethoxy-4-((2-(N-methylmethanesulfonamido)-4-morpholinophenyl)amino)nicotinamide]	0.00277 µM	> 10 µM	> 10 µM				
C#Cc1ccc(Nc2cc(Nc3ccccn3)ncc2C(=O)NOCC)c(N(C)S(C)(=O)=O)c1 [Example 162, N-ethoxy-4-((4-ethynyl-2-(N-methylmethanesulfonamido)phenyl)amino)-6-(pyridin-2-ylamino)nicotinamide]	0.000438 µM	> 10 µM	> 10 µM				
CCONC(=O)c1cnc(NC(=O)C2CC2)cc1Nc1cccc(-c2ncc(F)cn2)c1OC [Example 209, 6-(cyclopropylcarboxamido)-N-ethoxy-4-((3-(5-fluoropyrimidin-2-yl)-2-methoxyphenyl)amino)nicotinamide]	0.00178 µM	> 10 µM	> 10 µM				
CCONC(=O)c1cnc(Nc2cccc(C)n2)cc1Nc1ccc(-c2ccnn2C)cc1OC [Example 222, N-ethoxy-4-((2-methoxy-4-(1-methyl-1H-pyrazol-5-yl)phenyl)amino)-6-((6-methylpyridin-2-yl)amino)nicotinamide]	0.00109 µM	> 10 µM	> 10 µM				
CONC(=O)c1cnc(Nc2cc(C)nc(C)n2)cc1Nc1ccccc1N(C)S(C)(=O)=O [Example 45]	0.000855 µM	> 10 µM	> 10 µM				
CCONC(=O)c1cnc(Nc2cc(C)nc(C)n2)cc1Nc1ccc(C#N)cc1N(C)S(C)(=O)=O [Example 177]	0.0016 µM	> 10 µM	> 10 µM				
CCONC(=O)c1cnc(Nc2cc(C)nc(C)n2)cc1Nc1ccc(OC)cc1N(C)S(=O)(=O)C1CC1 [Example 174, 6-((2,6-dimethylpyrimidin-4-yl)amino)-N-ethoxy-4-((4-methoxy-2-(N-methylcyclopropylsulfonamido)phenyl)amino)nicotinamide]	0.000784 µM	> 10 µM	> 10 µM				
CCONC(=O)c1cnc(Nc2cccc(C)n2)cc1Nc1ccc(C2CC2)cc1N(C)S(C)(=O)=O [Example 224, 4-((4-cyclopropyl-2-(N-methylmethanesulfonamido)phenyl)amino)-N-ethoxy-6-((6-methylpyridin-2-yl)amino)nicotinamide]				0.000177 µM	> 10 µM	> 10 µM	
CP(C)(=O)c1ccccc1Nc1cc(NC(=O)C2CC2)ncc1C(N)=O [Example 93, 6-(cyclopropylcarboxamido)-4-((2-(dimethylphosphoryl)phenyl)amino)nicotinamide]	0.279 µM	> 10 µM	> 10 µM				
CCONC(=O)c1cnc(Nc2cnccn2)cc1Nc1cc(F)c(C2CC2)cc1N(C)S(C)(=O)=O [Example 167, 4-((4-cyclopropyl-5-fluoro-2-(N-methylmethanesulfonamido)phenyl)amino)-N-ethoxy-6-(pyrazin-2-ylamino)nicotinamide]	0.00151 µM	> 10 µM	> 10 µM				
CCONC(=O)c1cnc(Nc2cc(C)nc(C)n2)cc1Nc1cc(F)cc(-c2cnccn2)c1OC [Example 258, 6-((2,6-dimethylpyrimidin-4-yl)amino)-N-ethoxy-4-((5-fluoro-2-methoxy-3-(pyrazin-2-yl)phenyl)amino)nicotinamide]	0.00215 µM	> 10 µM	> 10 µM				
CCONC(=O)c1cnc(Nc2ccncn2)cc1Nc1ccc(C2CC2)cc1N(C)S(=O)(=O)C1CC1 [Example 190, 4-((4-cyclopropyl-2-(N-methylcyclopropylsulfonamido)phenyl)amino)-N-ethoxy-6-(pyrimidin-4-ylamino)nicotinamide]	0.00273 µM	> 10 µM	> 10 µM				
CCONC(=O)c1cnc(Nc2cc(C)nc(C)n2)cc1Nc1ccc(C2CC2)cc1N(C)S(=O)(=O)CC [Example 185]	0.000821 µM	> 10 µM	> 10 µM				
CCONC(=O)c1cnc(Nc2ccc(C)nn2)cc1Nc1cc(F)c(C2CC2)cc1N(C)S(C)(=O)=O [Example 176, 4-((4-cyclopropyl-5-fluoro-2-(N-methylmethanesulfonamido)phenyl)amino)-N-ethoxy-6-((6-methylpyridazin-3-yl)amino)nicotinamide]	0.00232 µM	> 10 µM	> 10 µM				
CONC(=O)c1cnc(NC(=O)C2CC2)cc1Nc1ccc(C2CC2)cc1N(C)S(C)(=O)=O [Example 12, 6-(cyclopropylcarboxamido)-4-((4-cyclopropyl-2-(N-methylmethanesulfonamido)phenyl)amino)-N-methoxy nicotinamide]		> 10 µM	> 10 µM				0.000961 µM
C#Cc1ccc(Nc2cc(Nc3ccc(OC)cn3)ncc2C(=O)NOC)c(N(C)S(C)(=O)=O)c1 [Example 18, 4-((4-ethynyl-2-(N-methylmethanesulfonamido)phenyl)amino)-N-methoxy-6-((5-methoxypyridin-2-yl)amino)nicotinamide]		> 10 µM	> 10 µM				0.000784 µM
CCONC(=O)c1cnc(NC(=O)C2CC2)cc1Nc1cc(F)c(C2CC2)cc1N(C)S(C)(=O)=O [Example 97, 6-(cyclopropylcarboxamido)-4-((4-cyclopropyl-5-fluoro-2-(N-methylmethanesulfonamido)phenyl)amino)-N-ethoxy nicotinamide]	0.00133 µM	> 10 µM	> 10 µM				
CONC(=O)c1cnc(Nc2cccc(F)n2)cc1Nc1ccc(OCC2CC2)cc1N(C)S(C)(=O)=O [Example 62, 4-((4-(cyclopropylmethoxy)-2-(N-methylmethanesulfonamido)phenyl)amino)-6-((6-fluoropyridin-2-yl)amino)-N-methoxy nicotinamide]	0.00129 µM	> 10 µM	> 10 µM				
CCONC(=O)c1cnc(Nc2cccc(C(F)(F)F)n2)cc1Nc1ccc(C2CC2)cc1N(C)S(C)(=O)=O [Example 220, 4-((4-cyclopropyl-2-(N-methylmethanesulfonamido)phenyl)amino)-N-ethoxy-6-((6-(trifluoromethyl)pyridin-2-yl)amino)nicotinamide]	0.00132 µM	> 10 µM	> 10 µM				
CCONC(=O)c1cnc(Nc2ccncn2)cc1Nc1cc(F)c(C(C)C)cc1N(C)S(C)(=O)=O [Example 230, N-ethoxy-4-((5-fluoro-4-isopropyl-2-(N-methylmethanesulfonamido)phenyl)amino)-6-(pyrimidin-4-ylamino)nicotinamide]	0.00085 µM	> 10 µM	> 10 µM				
